# Results taken from ChEMBL document CHEMBL1773070, “Benzophenone-based derivatives: a novel series of potent and selective dual inhibitors of acetylcholinesterase and acetylcholinesterase-induced beta-amyloid aggregation” (Eur J Med Chem, 2011).
# What was measured:
# [1] = target: Acetylcholinesterase (Homo sapiens, UniProt P22303); assay: Inhibition of human AChE using acetylthiocholine iodide as substrate by Ellman's assay
# [2] = target: Cholinesterase (Homo sapiens, UniProt P06276); assay: Inhibition of human BChE using butyrylthiocholine iodide as substrate by Ellman's method
# Cholinesterase, sequence (P06276 whole entry): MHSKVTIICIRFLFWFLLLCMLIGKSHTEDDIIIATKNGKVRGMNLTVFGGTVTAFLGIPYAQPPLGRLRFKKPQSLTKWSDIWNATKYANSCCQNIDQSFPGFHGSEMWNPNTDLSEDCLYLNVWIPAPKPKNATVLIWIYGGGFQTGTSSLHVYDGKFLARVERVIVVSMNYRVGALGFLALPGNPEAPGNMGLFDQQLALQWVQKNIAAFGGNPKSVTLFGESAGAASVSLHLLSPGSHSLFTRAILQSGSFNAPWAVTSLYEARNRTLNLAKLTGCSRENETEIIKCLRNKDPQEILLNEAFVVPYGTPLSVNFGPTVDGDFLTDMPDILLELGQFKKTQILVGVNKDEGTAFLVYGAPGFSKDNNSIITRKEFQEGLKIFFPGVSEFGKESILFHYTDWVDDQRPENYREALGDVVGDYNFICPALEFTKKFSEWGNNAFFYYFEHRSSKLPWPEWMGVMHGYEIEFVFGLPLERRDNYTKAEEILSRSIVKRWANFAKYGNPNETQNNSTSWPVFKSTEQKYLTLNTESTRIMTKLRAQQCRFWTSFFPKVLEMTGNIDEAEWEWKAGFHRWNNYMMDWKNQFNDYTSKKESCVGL
# Acetylcholinesterase, sequence (P22303 whole entry): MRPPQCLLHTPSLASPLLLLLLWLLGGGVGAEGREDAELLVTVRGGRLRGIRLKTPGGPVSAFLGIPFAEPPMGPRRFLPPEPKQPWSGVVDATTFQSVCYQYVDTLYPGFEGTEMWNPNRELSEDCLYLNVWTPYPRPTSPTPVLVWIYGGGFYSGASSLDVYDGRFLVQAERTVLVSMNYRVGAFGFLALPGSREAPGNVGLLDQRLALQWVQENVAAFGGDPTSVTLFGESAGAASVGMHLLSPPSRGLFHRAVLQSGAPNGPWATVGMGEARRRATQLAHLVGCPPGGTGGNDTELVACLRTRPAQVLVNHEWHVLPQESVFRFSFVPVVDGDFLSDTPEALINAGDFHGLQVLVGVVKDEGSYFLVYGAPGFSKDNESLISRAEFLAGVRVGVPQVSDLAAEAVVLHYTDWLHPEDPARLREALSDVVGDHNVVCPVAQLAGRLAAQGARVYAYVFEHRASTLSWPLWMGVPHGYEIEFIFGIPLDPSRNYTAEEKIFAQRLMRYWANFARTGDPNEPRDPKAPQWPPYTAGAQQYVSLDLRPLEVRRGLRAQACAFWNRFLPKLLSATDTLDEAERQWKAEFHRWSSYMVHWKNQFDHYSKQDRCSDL
smiles,measurement,setting,value
CN(Cc1ccccc1)Cc1ccc(C(=O)c2ccc(NC(=O)CN3CCCCC3)cc2)cc1,IC50,[1],0.55 µM
same,IC50,[2],145 µM
CN(Cc1ccccc1)Cc1ccc(C(=O)c2ccc(OCCCN3CCOCC3)cc2)cc1,IC50,[1],0.107 µM
same,IC50,[2],21 µM
CCN(CC)CCCCCCCOc1ccc(C(=O)c2ccc(CN(C)Cc3ccccc3)cc2)cc1,IC50,[1],0.81 µM
same,IC50,[2],23 µM
CCN(CC)CCc1ccc(Oc2ccc(C(=O)c3ccc(CN(C)Cc4ccccc4)cc3)cc2)cc1,IC50,[1],0.13 µM
same,IC50,[2],209 µM
COc1ccc(C(=O)c2ccc(CN(C)Cc3ccccc3)cc2)cc1,IC50,[2],> 10 µM
CN(Cc1ccccc1)Cc1ccc(C(=O)c2ccc(OCCCN3CCC(n4c(=O)[nH]c5ccccc54)CC3)cc2)cc1,IC50,[1],0.068 µM
same,IC50,[2],39 µM
CN(Cc1ccccc1)Cc1ccc(C(=O)c2ccc(OCCCCCCN3CCCCC3)cc2)cc1,IC50,[1],0.21 µM
same,IC50,[2],9.7 µM
CN(Cc1ccccc1)Cc1ccc(C(=O)c2ccc(NC(=O)CN3CCOCC3)cc2)cc1,IC50,[1],0.72 µM
same,IC50,[2],179 µM
CCN(CC)CCCCCOc1ccc(C(=O)c2ccc(CN(C)Cc3ccccc3)cc2)cc1,IC50,[1],0.144 µM
same,IC50,[2],34 µM
CCN(CC)CC(=O)Nc1ccc(C(=O)c2ccc(CN(C)Cc3ccccc3)cc2)cc1,IC50,[1],0.21 µM
same,IC50,[2],144 µM
CN(Cc1ccccc1)Cc1ccc(C(=O)c2ccc(NC(=O)CCCCN3CCCCC3)cc2)cc1,IC50,[1],0.217 µM
same,IC50,[2],68 µM
CCN(CC)CCCOc1ccc(C(=O)c2ccc(CN(C)Cc3ccccc3)cc2)cc1,IC50,[1],0.025 µM
same,IC50,[2],35 µM
CN(Cc1ccccc1)Cc1ccc(C(=O)c2ccc(OCCCN3CCCCC3)cc2)cc1,IC50,[1],0.024 µM
same,IC50,[2],11 µM
CN(Cc1ccccc1)Cc1ccc(C(=O)c2ccc(OCCCCCN3CCCCC3)cc2)cc1,IC50,[1],0.143 µM
same,IC50,[2],10.4 µM
CN(Cc1ccccc1)Cc1ccc(C(=O)c2ccc(OCCCCCCCN3CCCCC3)cc2)cc1,IC50,[1],0.11 µM
same,IC50,[2],24.2 µM
CCN(CC)CCCCCCOc1ccc(C(=O)c2ccc(CN(C)Cc3ccccc3)cc2)cc1,IC50,[1],0.257 µM
same,IC50,[2],21.9 µM
